We go through two compounds from patent US12252457B2, “Compositions and methods for reducing tactile dysfunction, anxiety, and social impairment” (President and Fellows of Harvard College, priority 2018, dated 2025).

Assay [1] has as its target T1, human GABA-A α2β3γ2 ion channels (Homo sapiens, UniProt P28472+P47869).
T1 construct: expressed in transfected cells
T1 sequence (P47869 29-451): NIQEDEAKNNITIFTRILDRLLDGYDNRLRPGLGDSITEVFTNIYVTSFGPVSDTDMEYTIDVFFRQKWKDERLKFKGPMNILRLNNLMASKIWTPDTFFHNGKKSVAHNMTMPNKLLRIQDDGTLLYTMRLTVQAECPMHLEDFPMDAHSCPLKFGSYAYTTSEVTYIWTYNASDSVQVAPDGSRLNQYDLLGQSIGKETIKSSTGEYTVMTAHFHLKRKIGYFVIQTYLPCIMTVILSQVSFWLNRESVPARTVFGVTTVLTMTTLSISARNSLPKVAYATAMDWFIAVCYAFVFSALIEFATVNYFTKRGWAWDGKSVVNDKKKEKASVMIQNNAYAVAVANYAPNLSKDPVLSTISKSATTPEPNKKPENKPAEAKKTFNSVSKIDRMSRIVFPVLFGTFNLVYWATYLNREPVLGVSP
T1 sequence (P28472 26-473): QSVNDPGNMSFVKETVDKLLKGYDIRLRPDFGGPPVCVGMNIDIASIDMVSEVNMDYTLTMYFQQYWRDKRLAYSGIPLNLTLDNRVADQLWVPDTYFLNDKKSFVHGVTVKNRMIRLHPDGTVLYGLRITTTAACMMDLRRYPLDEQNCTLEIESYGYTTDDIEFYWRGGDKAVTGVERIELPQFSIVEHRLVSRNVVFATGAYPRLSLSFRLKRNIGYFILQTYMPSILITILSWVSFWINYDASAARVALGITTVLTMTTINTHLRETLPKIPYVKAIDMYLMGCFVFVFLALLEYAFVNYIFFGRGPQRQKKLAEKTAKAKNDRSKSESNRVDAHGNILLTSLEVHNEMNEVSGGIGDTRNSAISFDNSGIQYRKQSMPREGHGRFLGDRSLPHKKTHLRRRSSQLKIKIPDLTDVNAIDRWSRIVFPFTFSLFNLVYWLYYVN
T1 sequence (P18507 40-467 partner limits assumed): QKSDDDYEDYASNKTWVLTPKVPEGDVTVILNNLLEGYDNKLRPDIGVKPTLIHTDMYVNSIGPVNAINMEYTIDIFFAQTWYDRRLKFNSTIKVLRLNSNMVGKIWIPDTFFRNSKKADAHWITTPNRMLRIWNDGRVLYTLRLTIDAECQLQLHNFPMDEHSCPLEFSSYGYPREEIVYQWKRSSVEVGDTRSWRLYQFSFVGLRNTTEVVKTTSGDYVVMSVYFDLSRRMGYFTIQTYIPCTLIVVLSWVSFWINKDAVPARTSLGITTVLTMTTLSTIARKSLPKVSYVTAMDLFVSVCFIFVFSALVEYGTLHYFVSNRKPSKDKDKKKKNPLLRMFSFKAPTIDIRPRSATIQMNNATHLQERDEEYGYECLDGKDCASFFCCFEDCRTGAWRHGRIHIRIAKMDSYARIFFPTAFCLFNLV
Description: Human GABA-A receptor IonFlux HT agonist assay (Cl-flux), α2β3γ2. To be noted: for Normalized Percentage Activation, Mean: hGABAA α2β3γ2. It counts as cell-based. The text has this: (FIG. 12A) Six additions of 0.33% DMSO for 2 seconds were introduced to the cells to act as a time matched vehicle control for the agonist. (FIG. 12B) Note: The test compound was applied over two ‘experimental patterns’ in increasing concentrations. […] Time-matched negative and reference compound data are included for comparison.
[…] Aliquots were taken out and diluted 300× into external buffer to give the final assay concentration. All wells included a final DMSO concentration of 0.33% including all control wells.
(§1) All recordings were obtained from a holding potential of −60 mV. The compound addition sequence that was used for all additions was the same for all assays. […] Each test concentration of compound was applied for 2 seconds followed by 30 seconds wash. The process was repeated with the next ascending concentration of test compound up to a maximum of six concentrations per well (FIG. 14).
(§2) Peak inward currents in response to the additions of compound were measured. […] All data were first exported to an Excel compatible data file and then analyzed using Graph Pad Prism software.

Assay [2] addresses T2, human GABA-A α1β3γ2 ion channels (Homo sapiens, UniProt P14867+P28472).
T2 construct: expressed in transfected cells
T2 sequence (P14867 28-456): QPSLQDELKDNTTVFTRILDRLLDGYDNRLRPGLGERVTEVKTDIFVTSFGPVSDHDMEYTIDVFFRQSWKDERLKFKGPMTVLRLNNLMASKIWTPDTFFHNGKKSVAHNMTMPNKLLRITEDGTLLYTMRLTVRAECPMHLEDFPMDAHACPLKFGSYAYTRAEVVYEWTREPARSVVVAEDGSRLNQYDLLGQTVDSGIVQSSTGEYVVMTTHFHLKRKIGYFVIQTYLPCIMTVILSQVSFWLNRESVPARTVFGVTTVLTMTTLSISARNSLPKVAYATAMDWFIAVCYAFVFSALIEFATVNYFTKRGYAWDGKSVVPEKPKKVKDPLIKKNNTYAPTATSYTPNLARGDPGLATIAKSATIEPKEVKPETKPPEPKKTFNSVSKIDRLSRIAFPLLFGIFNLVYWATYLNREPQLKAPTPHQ
T2 sequence (P28472 26-473): T1 sequence (P28472 26-473)
T2 sequence (P18507 40-467 partner limits assumed): T1 sequence (P18507 40-467 partner limits assumed)
Kind of assay: Human GABA-A receptor IonFlux HT agonist assay (Cl-flux), α1β3γ2. The following applies: for Normalized Peak hGABAA α1β3γ2 Current (%) Agonist, Mean: normalized to EC100 GABA (30 μM). The class given is cell-based. How it is done: Six additions of 0.33% DMSO for 2 seconds were introduced to the cells to act as a time matched vehicle control for the agonist. Note: The test compound was applied over two ‘experimental patterns’ in increasing concentrations. […] Time-matched negative and reference compound data are included for comparison.
The supplied compounds were prepared in DMSO to concentrations that were 300× the final assay concentrations of 0.1, 0.3, 1, 3, 10, 30 and 100 μM. Aliquots were taken out and diluted 300× into external buffer to give the final assay concentration. All wells included a final DMSO concentration of 0.33% including all control wells.
as §1, §2

Values joined by “and” are separate entries in the source; they are usually repeats but may differ in a detail not shown here. Equal entries are not always repeated. “Also recorded” adds a separate entry of the source. Structures can show the parent of a compound that is named as a salt. Where two headings read alike, the source gives them in different places.

What is called EC50 is the concentration giving half of the maximal effect. On to `NC1C=C(C(=O)O)CCC1` (centres unmarked) [Compound 5, 3-aminocyclohex-1-enecarboxylic acid hydrochloride], for which the EC50 in assay [1] is > 1000 µM. The “Normalized Percentage Activation, Mean” value in assay [1] (0.3 μM) turned out to be 1.42%; in assay [1] (1 μM), 1.28%; in assay [1] (3 μM) it was 1.23%; in assay [1] (10 μM), 1.56%; in assay [1] (30 μM), 1.48%; in assay [1] (100 μM), 1.96%. The “Normalized Percentage Activation, Mean” value in assay [1] (300 μM) is reported as 1.77%; in assay [1] (1000 μM), 1.64%. Besides, the “agonism of α2β3γ2-containing GABAA receptor (in words)” value in assay [1] (hydrochloride) is “not an agonist; also recorded: no agonism”. Moreover, the “agonism of α1β3γ2-containing GABAA receptor (in words)” value in assay [2] is “not an agonist”. Also, the “Normalized Peak hGABAA α1β3γ2 Current (%) Agonist, Mean” value in assay [2] (0.1 μM) was found to be 0.58%; in assay [2] (0.3 μM), 0.56%; in assay [2] (1 μM) it was 0.58%; in assay [2] (3 μM) it was 0.62%; in assay [2] (10 μM), 0.79%; in assay [2] (30 μM) it was 0.57%. Further, in assay [2] (100 μM), the “Normalized Peak hGABAA α1β3γ2 Current (%) Agonist, Mean” value was 0.49%.
As to `O=C(O)C1=CCNCC1` [Isoguvacine, isoguvacine], the “Normalized Percentage Activation, Mean” value was determined as 2.09% in assay [1] (0.3 μM); 4.69% in assay [1] (1 μM); 10.43% in assay [1] (3 μM); 32.71% in assay [1] (10 μM); 63.48% in assay [1] (30 μM); 85.91% in assay [1] (100 μM). The “Normalized Percentage Activation, Mean” value worked out at 99.01% in assay [1] (300 μM) and 100.05% in assay [1] (1000 μM). Further, the EC50 in assay [1] (GABAA receptor chloride flux assay, read-out: Estimated EC50 (μM), activation of α2β3γ2-containing GABAA receptors) was 18.7 µM; in assay [2] (GABAA receptor chloride flux assay, read-out: EC50, activation of α1β3γ2-containing GABAA receptors), 23.3 µM and 19.7 µM. In addition, the “Normalized Peak hGABAA α1β3γ2 Current (%) Agonist, Mean” value came out at 0.55% in assay [2] (0.1 μM); 1.02% in assay [2] (0.3 μM); 1.92% in assay [2] (1 μM); 4.94% in assay [2] (3 μM); 21.18% in assay [2] (10 μM); 53.29% in assay [2] (30 μM). In assay [2] (100 μM), the “Normalized Peak hGABAA α1β3γ2 Current (%) Agonist, Mean” value came to 79.91%.
